Literature values as cited in patent US20130327676A1, “Packaging of Solid Pharmaceutical Preparations Containing the Active Substance Glyceryl Trinitrate” (G. Pohl-Boskamp GmbH & Co. KG, priority 2011, published 2013).

Legend:
[1] = at 20° C.

O=[N+]([O-])OCC(CO[N+](=O)[O-])O[N+](=O)[O-] [GTN, glyceryl trinitrate]
vapor pressure [1]: 0.25 Pa | active substance originally contained in the tablets found in the polyethylene (polyethylene sealing layer of the packaging material): 84% | active substance remaining in tablets following storage, of originally contained (tablets packaged individually in aluminum foil films with polyethylene sealing layer): less than 10%
